The values that follow come from patent US10918727B2, “Peptide with ability to penetrate cell membrane” (ICURE BNP CO., LTD., priority 2016, dated 2021).

One series concerns male ICR mice. Description: Repeated-dose toxicity of nasal insulin formulations (10 days). Particulars: intranasal once a day for 10 days (insulin 2 IU/kg). Type of series: in vivo, mouse. Here is the method: The collected blood was centrifuged to isolate serum, and the isolated serum was analyzed using an automatic serum analyzer. […] From the organ tissue, paraffin sections were prepared, and then stained with H&E (Hematoxylin and Eosin). Histopathological examination of the stained tissues was performed using an optical microscope.

Series [1] deals with nasal mucosal membrane (female BALB/c mice). Description: Penetration of OVA into nasal mucosal epithelial cells after intranasal OVA/TCTP-PTD 13 mixture (immunofluorescence). Conditions: intranasal 10 μl, OVA 10 μM (4.5 μg), OVA:PTD 1:30, 15 minutes. It is filed as in vivo, mouse. Here is the method:
First, OVA and L-PTD 13 or D-PTD 13 were dissolved in PBS (phosphate buffered saline, pH 7.4) such that the concentrations of OVA and TCTP-PTD would be 10 μM and 300 μM, respectively, thereby preparing mixtures. Herein, OVA and TCTP-PTD were mixed at a molar ratio of 1:30.
Female BALB/c mice (6-8-week-old) were anesthetized by intraperitoneal injection of 50 mg/kg of zoletil and 10 mg/kg of xylazine.
10 μl of OVA, the OVA/D-PTD 13 mixture or the OVA/L-PTD 13 mixture was administered intranasally to each of the anesthetized mice. A control group was administered with 4.5 μg of OVA alone.
15 minutes after intranasal administration, the nasal tissue was collected. The collected nasal tissue was fixed with 10% formalin for about 24 hours, and then decalcified using 4 M formic acid at 4° C. for 30 hours. After decalcification, the nasal tissue was embedded in paraffin according to a conventional method, sectioned to a thickness of 5 μm, and attached to a slide. […] After incubation with the primary antibody, the slide was washed with PBS, and then incubated with a 1:100 dilution of secondary antibody (green fluorescence; Alexa 488-conjugated secondary antibodies, Invitrogen) at room temperature for 1 hour. The slide was washed with PBS, and then the nucleus was stained with DAPI (blue fluorescence), followed by observation with a fluorescence microscope.

Consider `C[C@H](CCC(=O)NCCS(=O)(=O)[O-])[C@H]1CC[C@H]2[C@@H]3CC[C@@H]4C[C@H](O)CC[C@]4(C)[C@H]3C[C@H](O)[C@]12C.[Na+]` [sodium taurodeoxycholate], for which, in the series on male ICR mice, the “histological evaluation of the nasal mucosal tissue” value was “destroyed”.

Take “ovalbumin [OVA (ovalbumin), 45 kDa, model antigen for vaccination]”: the “OVA fluorescence inside the nasal mucosal membrane” value in series [1] was “not substantially observed inside the nasal mucosal membrane”.
